Data reported in patent US8859589B2 (priority 2008, dated 2014).
Several values for one entry are separate records, joined by “and”; a condition that tells them apart may be missing. Equal entries are not always repeated. Where two headings read alike, the source gives them in different places.

Legend:
[1] = tested on: wild-type VV (Vaccinia Virus); format: cell-based
CV Cowpox Virus = format: cell-based
[2] = tested on: thymidine kinase deficient mutant strain of VV; format: cell-based, Vaccinia Virus
[3] = tested on: dUTPase deficient mutant strain of VV; format: cell-based, Vaccinia Virus
VV = tested on: VV; parameters: species or system mice; settings: mouse, in vivo
CV = tested on: CV; parameters: species or system mice; settings: mouse, in vivo
VV or CV = tested on: VV or CV; parameters: species or system mice; settings: mouse, in vivo
Cowpox Virus-BR = tested on: Cowpox Virus-BR; parameters: species or system BALB/c mice; settings: mouse, in vivo
in vitro [4] = assay: in vitro
in vitro [5] = assay: in vitro; remark: listed apart in the source

| Structure (SMILES) | effective concentration against wild-type VV [1] | effective concentration against CV (CV Cowpox Virus) | antiviral activity against mutant strain of VV [2] | antiviral activity against mutant strain of VV [3] | protection from mortality (VV) | protection from mortality (CV) | reduction in mortality (VV or CV) | MDD ± STDEV (Mean Day of Death) (Cowpox Virus-BR) | Mortality Number (Cowpox Virus-BR) | CC50 (in vitro [4]) | CC50 (in vitro [5]) | Mortality Percent (Cowpox Virus-BR) |
| --- | --- | --- | --- | --- | --- | --- | --- | --- | --- | --- | --- | --- |
| O=c1[nH]c(=O)n([C@H]2C[C@H](O)[C@@H](CO)S2)cc1I [5-iodo-4′-thio-2′-deoxyuridine] | less than 1.0 μM | less than 1.0 μM | retained its antiviral activity | retained its antiviral activity | completely protected | complete protection from mortality | significant reduction in mortality | 18.0 and 16.0 ± 2.8 and 14.0 and 14.0 ± 5.7 | 0/15 and 0/13 and 1/15 and 2/15 | > 100 µM | > 100 µM | – |
| Nc1ccn(C[C@@H](CO)OCP(=O)(O)O)c(=O)n1 [Cidofovir, reference compound] | – | – | – | – | – | – | – | – | 0/15 and 0/14 | – | – | 0% |
